PubChem BioAssay (NCI)
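Briefly, cells in 96-well plates were exposed to five compound concentrations for 48 h, and endpoints were estimated by linear interpolation. GI50 = concentration required for 50% inhibition of growth. At the TGI there is no net growth.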

Key:
Experiment in all cases: growth of human tumour cells (NCI), 48 h
IGROV1 ovarian = test system: IGROV1 ovarian
K-562 leukemia = test system: K-562 leukemia
MDA-MB-435 = test system: MDA-MB-435
MDA-N = test system: MDA-N
OVCAR-4 ovarian = test system: OVCAR-4 ovarian
PC-3 prostate = test system: PC-3 prostate
RXF 393 renal = test system: RXF 393 renal
SK-MEL-28 melanoma = test system: SK-MEL-28 melanoma
SN12C renal = test system: SN12C renal
SNB-19 CNS = test system: SNB-19 CNS
SR leukemia = test system: SR leukemia
T-47D breast = test system: T-47D breast
UACC-257 melanoma = test system: UACC-257 melanoma
A498 renal = test system: A498 renal

Compound	TGI (IGROV1 ovarian)	TGI (K-562 leukemia)	TGI (MDA-MB-435)	TGI (MDA-N)	TGI (OVCAR-4 ovarian)	TGI (PC-3 prostate)	TGI (RXF 393 renal)	TGI (SK-MEL-28 melanoma)	TGI (SN12C renal)	TGI (SNB-19 CNS)	TGI (SR leukemia)	TGI (T-47D breast)	TGI (UACC-257 melanoma)	TGI (A498 renal)	GI50 (MDA-MB-435)	GI50 (PC-3 prostate)	GI50 (RXF 393 renal)
CC(C)C(NCc1c(O)ccc2c(-c3ccccc3)cc(=O)oc12)C(=O)O (stereo not given)	> 100 µM	> 100 µM	> 100 µM	> 100 µM	> 100 µM	> 100 µM	> 100 µM	> 100 µM	> 100 µM	> 100 µM	> 100 µM	> 100 µM	> 100 µM	–	–	–	–
O=c1ccn(C2OC(CN(O)CCC3C(CO)OC(n4ccc(=O)[nH]c4=O)C3O)C(O)C2O)c(=O)[nH]1 (stereo not given)	> 100 µM	> 100 µM	> 100 µM	> 100 µM	> 100 µM	> 100 µM	> 100 µM	> 100 µM	> 100 µM	> 100 µM	–	> 100 µM	> 100 µM	> 100 µM	–	–	–
Cc1cc2c(cc1Cl)SC(NNc1ccc([N+](=O)[O-])cc1)=NS2(=O)=O	> 10 µM	> 10 µM	> 10 µM	> 10 µM	> 10 µM	> 10 µM	> 10 µM	> 10 µM	> 10 µM	> 10 µM	–	> 10 µM	> 10 µM	> 10 µM	–	–	–
CC1OC(OC2C(Oc3cc(O)c4c(c3)O[C@H](c3ccc(O)cc3)CC4=O)OC(CO)C(O)C2O)C(O)C(O)C1O (stereo not given in full)	> 100 µM	–	> 100 µM	> 100 µM	> 100 µM	> 100 µM	> 100 µM	> 100 µM	> 100 µM	–	> 100 µM	> 100 µM	> 100 µM	> 100 µM	–	–	–
CCN(CC)CCO/N=C1/C=C2CCC3C(CC[C@@]4(C)C3CC[C@]4(C)O)[C@@]2(C)CC1 (stereo not given in full)	21 µM	18.9 µM	4.77 µM	5.72 µM	> 100 µM	88.1 µM	72.2 µM	–	16.3 µM	45.4 µM	–	68 µM	18.2 µM	0.878 µM	–	–	–
CC(=O)c1sc(=N)n(-c2c(C)cccc2C)c1C	> 100 µM	> 100 µM	> 100 µM	> 100 µM	> 100 µM	> 100 µM	> 100 µM	> 100 µM	> 100 µM	> 100 µM	> 100 µM	> 100 µM	–	> 100 µM	–	–	–
CC1=C(C(=O)OC(C)C)C(c2ccccc2C(F)(F)F)C(C(=O)OC(CO[N+](=O)[O-])CO[N+](=O)[O-])=C(C)N1 (stereo not given)	25.9 µM	41.7 µM	27.4 µM	21.9 µM	28.5 µM	12.2 µM	24.7 µM	55.3 µM	32 µM	> 100 µM	> 100 µM	> 100 µM	–	–	–	–	–
C/C(=N\NC(=S)NCc1ccccc1)c1nc2ncccc2[nH]1	34.1 µM	41.5 µM	33.5 µM	26.8 µM	83 µM	50.2 µM	–	37.4 µM	> 100 µM	50.2 µM	> 100 µM	43.3 µM	22.1 µM	50 µM	–	–	–
OC(C/C=N/Nc1ccccc1)(C(F)(F)Cl)C(F)(F)Cl	> 10 µM	> 10 µM	> 10 µM	> 10 µM	> 10 µM	> 10 µM	> 10 µM	> 10 µM	> 10 µM	> 10 µM	–	> 10 µM	> 10 µM	> 10 µM	–	–	–
O=C1c2ccccc2-c2c1c(-c1cccc(Br)c1)nc1ccc3ccccc3c21	–	> 100 µM	> 100 µM	> 100 µM	> 100 µM	> 100 µM	> 100 µM	> 100 µM	> 100 µM	> 100 µM	–	> 100 µM	> 100 µM	> 100 µM	–	–	–
CCc1n[nH]c(=O)n1CCO	> 100 µM	> 100 µM	> 100 µM	> 100 µM	> 100 µM	> 100 µM	–	> 100 µM	> 100 µM	> 100 µM	–	> 100 µM	> 100 µM	> 100 µM	–	–	–
Cc1nc2c(=O)n3c4c(cccc4c2o1)CCC3	> 100 µM	> 100 µM	> 100 µM	> 100 µM	> 100 µM	> 100 µM	> 100 µM	> 100 µM	> 100 µM	> 100 µM	–	> 100 µM	> 100 µM	> 100 µM	–	–	–
COc1cccc(-c2nc(-c3cnccn3)n(COCCO)n2)c1	> 100 µM	> 100 µM	> 100 µM	> 100 µM	> 100 µM	> 100 µM	> 100 µM	> 100 µM	> 100 µM	> 100 µM	> 100 µM	> 100 µM	> 100 µM	–	–	–	–
Cc1ccc2c(=O)cc(-c3sc4ccccc4c3C)[nH]c2n1	45.7 µM	> 100 µM	17.8 µM	45 µM	54 µM	> 100 µM	53.1 µM	71.4 µM	> 100 µM	> 100 µM	–	55.8 µM	> 100 µM	> 100 µM	4.84 µM	33.4 µM	16.8 µM
CCCC[C@H]1CCN2C[C@@H](O)[C@@H](O)[C@H]2[C@@H]1O	> 100 µM	> 100 µM	> 100 µM	> 100 µM	> 100 µM	> 100 µM	–	> 100 µM	> 100 µM	> 100 µM	–	> 100 µM	> 100 µM	> 100 µM	–	–	–
O=c1oc2ccc([N+](=O)[O-])cc2c(Nc2ccc3c(c2)S(=O)(=O)c2ccccc2O3)c1[N+](=O)[O-]	> 100 µM	> 100 µM	> 100 µM	> 100 µM	> 100 µM	> 100 µM	> 100 µM	> 100 µM	> 100 µM	> 100 µM	> 100 µM	> 100 µM	> 100 µM	–	–	–	–
Cn1c2ccccc2c(=O)c2[nH]c3ccccc3c21	> 100 µM	> 100 µM	> 100 µM	> 100 µM	> 100 µM	> 100 µM	> 100 µM	59.5 µM	> 100 µM	> 100 µM	–	> 100 µM	> 100 µM	> 100 µM	–	–	–
COc1cc(C2C(Cl)C(=O)N2NC(=O)c2ccc(NC(C)=O)cc2OC)ccc1O (stereo not given)	79.7 µM	55.2 µM	> 100 µM	50.7 µM	> 100 µM	55 µM	47.4 µM	97.8 µM	35 µM	47.4 µM	> 100 µM	52.2 µM	–	37.5 µM	–	–	–
COc1ccc(NC2CC(C)N(C(=O)c3ccccc3)O2)cc1 (stereo not given)	> 10 µM	> 10 µM	> 10 µM	> 10 µM	> 10 µM	> 10 µM	> 10 µM	> 10 µM	> 10 µM	> 10 µM	> 10 µM	> 10 µM	> 10 µM	–	–	–	–
O=C1Oc2cc3c(c4cccc1c24)O[C@H](c1ccccc1)[C@@H](c1ccccc1)[C@@H]3c1ccc(Cl)cc1	77.4 µM	> 100 µM	> 100 µM	> 100 µM	> 100 µM	> 100 µM	40.1 µM	> 100 µM	> 100 µM	> 100 µM	87.2 µM	> 100 µM	> 100 µM	–	–	–	–
CC1(C)[C@H]2Cc3cc(-c4cc5c(cn4)[C@@H]4C[C@H]([C@@H]5[C@@H]5c6cc(-c7cc8c(cn7)[C@@H]7C[C@H](C8)C7(C)C)ncc6[C@@H]6C[C@H]5C6(C)C)C4(C)C)ncc3[C@@H]1C2	> 100 µM	> 100 µM	> 100 µM	> 100 µM	–	> 100 µM	> 100 µM	> 100 µM	> 100 µM	> 100 µM	> 100 µM	> 100 µM	> 100 µM	> 100 µM	–	–	–
O=C(/C=C(\O)c1ccccc1)c1cc(-c2ccccc2)n(-c2ccccc2)n1	79.9 µM	> 100 µM	> 100 µM	> 100 µM	–	> 100 µM	> 100 µM	–	39.9 µM	> 100 µM	5.2 µM	37.9 µM	> 100 µM	> 100 µM	–	–	–
CCOP(=O)(OCC)/C(C#N)=C/c1ccnc2ccccc12	> 100 µM	–	31.3 µM	42.2 µM	> 100 µM	35.4 µM	79.1 µM	> 100 µM	88.2 µM	57.5 µM	73.6 µM	> 100 µM	> 100 µM	> 100 µM	–	–	–
c1ccc(CC2(c3cc4ccccc4[nH]3)OCCO2)nc1	> 100 µM	> 100 µM	> 100 µM	> 100 µM	–	> 100 µM	> 100 µM	> 100 µM	> 100 µM	> 100 µM	–	> 100 µM	> 100 µM	> 100 µM	–	–	–
O=C(CSC1=NNC2(C(=O)N1)c1ccccc1-c1ccccc12)NC(=S)Nc1ccccc1	> 10 µM	> 10 µM	> 10 µM	> 10 µM	> 10 µM	> 10 µM	> 10 µM	> 10 µM	> 10 µM	> 10 µM	> 10 µM	> 10 µM	> 10 µM	–	–	–	–
